Reference: PubChem BioAssay AID1259407 (Chemical Carcinogenesis Research Information System (CCRIS), 2018)
The source made the active and inactive calls. No rule for the calls is given here.

System: CCRIS mutagenicity, Ames/micronucleus/aberration tests
Assay: CCRIS mutagenicity studies
[1] = Test System: AMES SALMONELLA TYPHIMURIUM, Strain/Indicator: TA102, Metabolic Activation: NONE, Method: PREINCUBATION
[2] = Test System: AMES SALMONELLA TYPHIMURIUM, Strain/Indicator: TA98, Metabolic Activation: HAMSTER, LIVER, S-9, AROCLOR 1254, Method: STANDARD PLATE
[3] = Test System: AMES SALMONELLA TYPHIMURIUM, Strain/Indicator: TA98, Metabolic Activation: NONE, Method: STANDARD PLATE
[4] = Test System: AMES SALMONELLA TYPHIMURIUM, Strain/Indicator: TA98, Metabolic Activation: RAT, LIVER, S-9, AROCLOR 1254, Method: STANDARD PLATE
[5] = Test System: AMES SALMONELLA TYPHIMURIUM, Strain/Indicator: TA100, Metabolic Activation: HAMSTER, LIVER, S-9, AROCLOR 1254, Method: STANDARD PLATE
[6] = Test System: AMES SALMONELLA TYPHIMURIUM, Strain/Indicator: TA100, Metabolic Activation: NONE, Method: STANDARD PLATE
[7] = Test System: AMES SALMONELLA TYPHIMURIUM, Strain/Indicator: TA100, Metabolic Activation: RAT, LIVER, S-9, AROCLOR 1254, Method: STANDARD PLATE
[8] = Test System: AMES SALMONELLA TYPHIMURIUM, Strain/Indicator: TA1535, Metabolic Activation: RAT, LIVER, S-9, AROCLOR 1254, Method: STANDARD PLATE
[9] = Test System: AMES SALMONELLA TYPHIMURIUM, Strain/Indicator: TA1538, Metabolic Activation: RAT, LIVER, S-9, AROCLOR 1254, Method: STANDARD PLATE

## CCCCN=[N+]=[N-]
Test System: Ames Salmonella typhimurium, Strain/Indicator: TA100, Metabolic Activation: None, Method: Preincubation
  mutagenic call: inactive; negative
Test System: Ames Salmonella typhimurium, Strain/Indicator: TA100, Metabolic Activation: Rat, Liver, S-9, Aroclor 1254, Method: Preincubation
  mutagenic call: active; positive

## Oc1ccc2c(O)cccc2c1
[1]
  mutagenic call: active; positive
Test System: AMES SALMONELLA TYPHIMURIUM, Strain/Indicator: TA2637, Metabolic Activation: RAT, LIVER, S-9, PHENOBARBITAL AND 5,6-BENZOFLAVONE, Method: PREINCUBATION
  mutagenic call: active; positive

## O[C@@H]1C=Cc2c(ccc3cc4ccccc4cc23)[C@H]1O
Test System: CHINESE HAMSTER V-79, Strain/Indicator: V-79/OUABAIN, Metabolic Activation: CELL-MEDIATED, Method: STANDARD PLATE
  mutagenic call: active; positive

## Nc1ccn([C@H]2CC[C@@H](CO)O2)c(=O)n1
[2]
  mutagenic call: inactive; negative
[3]
  mutagenic call: inactive; negative
[4]
  mutagenic call: inactive; negative
[5]
  mutagenic call: inactive; negative
[6]
  mutagenic call: inactive; negative
[7]
  mutagenic call: inactive; negative
Test System: MOUSE LYMPHOMA, Strain/Indicator: L5178Y (TK+/TK-), Metabolic Activation: NONE, Method: MICROWELL
  mutagenic call: inactive; negative
Test System: MOUSE LYMPHOMA, Strain/Indicator: L5178Y (TK+/TK-), Metabolic Activation: NONE, Method: SUSPENSION/PLATE
  mutagenic call: inactive; negative. reevaluation of results: negative
Test System: MOUSE LYMPHOMA, Strain/Indicator: L5178Y (TK+/TK-), Metabolic Activation: RAT, LIVER, S-9, AROCLOR 1254, Method: SUSPENSION/PLATE
  mutagenic call: inactive; negative. reevaluation of results: negative
Test System: MOUSE LYMPHOMA, Strain/Indicator: L5178Y (TK+/TK-), Metabolic Activation: S-9, Method: MICROWELL
  mutagenic call: inactive; negative

## CSCC[C@H](NC(=O)COc1ccc(Cl)cc1Cl)C(=O)O
Test System: AMES SALMONELLA TYPHIMURIUM, Strain/Indicator: TA97, Metabolic Activation: RAT, LIVER, S-9, AROCLOR 1254, Method: STANDARD PLATE
  mutagenic call: inactive; negative
Test System: AMES SALMONELLA TYPHIMURIUM, Strain/Indicator: TA97, Metabolic Activation: WOODCHUCK, LIVER, S-9, 3-METHYLCHOLANTHRENE, Method: STANDARD PLATE
  mutagenic call: inactive; negative
[4]
  mutagenic call: inactive; negative
Test System: AMES SALMONELLA TYPHIMURIUM, Strain/Indicator: TA98, Metabolic Activation: WOODCHUCK, LIVER, S-9, 3-METHYLCHOLANTHRENE, Method: STANDARD PLATE
  mutagenic call: inactive; negative
[7]
  mutagenic call: inactive; negative
Test System: AMES SALMONELLA TYPHIMURIUM, Strain/Indicator: TA100, Metabolic Activation: WOODCHUCK, LIVER, S-9, 3-METHYLCHOLANTHRENE, Method: STANDARD PLATE
  mutagenic call: inactive; negative
[8]
  mutagenic call: inactive; negative
Test System: AMES SALMONELLA TYPHIMURIUM, Strain/Indicator: TA1535, Metabolic Activation: WOODCHUCK, LIVER, S-9, 3-METHYLCHOLANTHRENE, Method: STANDARD PLATE
  mutagenic call: inactive; negative
[9]
  mutagenic call: inactive; negative
Test System: AMES SALMONELLA TYPHIMURIUM, Strain/Indicator: TA1538, Metabolic Activation: WOODCHUCK, LIVER, S-9, 3-METHYLCHOLANTHRENE, Method: STANDARD PLATE
  mutagenic call: inactive; negative

## CC(=O)OC/C=C(\C)CCC=C(C)C
End Point: IN VITRO CHROMOSOMAL ABERRATIONS, Test System: CHINESE HAMSTER OVARY CELLS, Metabolic Activation: NONE
  mutagenic call: inactive; negative; precipitation occurred at 100 ug/ml
End Point: IN VITRO CHROMOSOMAL ABERRATIONS, Test System: CHINESE HAMSTER OVARY CELLS, Metabolic Activation: RAT, LIVER, S-9, AROCLOR 1254
  mutagenic call: inactive; negative; precipitation occurred at 150 ug/ml

## COc1cc(CNC(=O)CCCCCCC(C)C)ccc1O
[2]
  mutagenic call: inactive; negative
[4]
  mutagenic call: inactive; negative
[5]
  mutagenic call: inactive; negative
[6]
  mutagenic call: inactive; negative
[7]
  mutagenic call: inactive; negative
Test System: AMES SALMONELLA TYPHIMURIUM, Strain/Indicator: TA1535, Metabolic Activation: HAMSTER, LIVER, S-9, AROCLOR 1254, Method: STANDARD PLATE
  mutagenic call: inactive; negative
Test System: AMES SALMONELLA TYPHIMURIUM, Strain/Indicator: TA1535, Metabolic Activation: NONE, Method: STANDARD PLATE
  mutagenic call: inactive; negative
[8]
  mutagenic call: inactive; negative
Test System: AMES SALMONELLA TYPHIMURIUM, Strain/Indicator: TA1537, Metabolic Activation: HAMSTER, LIVER, S-9, AROCLOR 1254, Method: STANDARD PLATE
  mutagenic call: inactive; negative
Test System: AMES SALMONELLA TYPHIMURIUM, Strain/Indicator: TA1537, Metabolic Activation: NONE, Method: STANDARD PLATE
  mutagenic call: inactive; negative
Test System: AMES SALMONELLA TYPHIMURIUM, Strain/Indicator: TA1537, Metabolic Activation: RAT, LIVER, S-9, AROCLOR 1254, Method: STANDARD PLATE
  mutagenic call: inactive; negative
Test System: AMES SALMONELLA TYPHIMURIUM, Strain/Indicator: TA1538, Metabolic Activation: HAMSTER, LIVER, S-9, AROCLOR 1254, Method: STANDARD PLATE
  mutagenic call: inactive; negative
Test System: AMES SALMONELLA TYPHIMURIUM, Strain/Indicator: TA1538, Metabolic Activation: NONE, Method: STANDARD PLATE
  mutagenic call: inactive; negative
[9]
  mutagenic call: inactive; negative

## COC(=O)C1=CCCN(N=O)C1
[3]
  mutagenic call: active; positive
Test System: AMES SALMONELLA TYPHIMURIUM, Strain/Indicator: TA98, Metabolic Activation: RAT, LIVER, S-9, Method: STANDARD PLATE
  mutagenic call: active; positive
[6]
  mutagenic call: active; positive
Test System: AMES SALMONELLA TYPHIMURIUM, Strain/Indicator: TA100, Metabolic Activation: RAT, LIVER, S-9, Method: STANDARD PLATE
  mutagenic call: active; positive

## CN1CCN(c2ccc3nc(CCCc4ccc5nc(-c6ccc(N(CCCl)CCCl)cc6)[nH]c5c4)[nH]c3c2)CC1
[3]
  mutagenic call: inactive; negative
[6]
  mutagenic call: inactive; negative
Test System: AMES SALMONELLA TYPHIMURIUM, Strain/Indicator: TA102, Metabolic Activation: NONE, Method: STANDARD PLATE
  mutagenic call: active; positive

## c1ccc2c(c1)CC[C@@H]1CCCC[C@@H]21
Test System: AMES SALMONELLA TYPHIMURIUM, Strain/Indicator: TA98, Metabolic Activation: RAT, LIVER, S-9, SODIUM PHENOBARBITAL AND BETA-NAPHTHOFLAVONE, Method: STANDARD PLATE
  mutagenic call: inactive; negative
Test System: AMES SALMONELLA TYPHIMURIUM, Strain/Indicator: TA100, Metabolic Activation: RAT, LIVER, S-9, SODIUM PHEOBARBITAL AND BETA-NAPHTHOFLAVONE, Method: STANDARD PLATE
  mutagenic call: inactive; negative

## O.O.O.O=C([O-])COc1ccccc1.O=C([O-])COc1ccccc1.[Cu+2]
Test System: AMES SALMONELLA TYPHIMURIUM, Strain/Indicator: TA97, Metabolic Activation: NONE, Method: PREINCUBATION
  mutagenic call: inactive; negative
Test System: AMES SALMONELLA TYPHIMURIUM, Strain/Indicator: TA97, Metabolic Activation: RAT, LIVER, S-9, AROCLOR 1254, Method: PREINCUBATION
  mutagenic call: inactive; negative
Test System: AMES SALMONELLA TYPHIMURIUM, Strain/Indicator: TA100, Metabolic Activation: NONE, Method: PREINCUBATION
  mutagenic call: inactive; negative
Test System: AMES SALMONELLA TYPHIMURIUM, Strain/Indicator: TA100, Metabolic Activation: RAT, LIVER, S-9, AROCLOR 1254, Method: PREINCUBATION
  mutagenic call: inactive; negative
[1]
  mutagenic call: inactive; negative
Test System: AMES SALMONELLA TYPHIMURIUM, Strain/Indicator: TA102, Metabolic Activation: RAT, LIVER, S-9, AROCLOR 1254, Method: PREINCUBATION
  mutagenic call: inactive; negative
